Assay results reported in US4593104A, “2-halo-N-(azole-1-yl-methyl)-substituted acetanilides” (BASF Aktiengesellschaft, priority 1976, dated 1986).

Tests used:
Stell. med. = experiment: postemergence application in the greenhouse, % damage; format: in vivo
Text: (§1) The vessels employed were plastic flowerpots having a volume of 300 cm^3; the substrate was a sandy loam containing about 1.5% humus. The seeds of the test plants (see Table 1) were sown shallow, and separated according to species. In the case of Cyperus esculentus, pregerminated tubers were planted. In the preemergence treatment, the active ingredients were then immediately applied to the surface of the soil. They were suspended or emulsified in water as the vehicle, and sprayed through atomizing nozzles. After the agents had been applied, the vessels were lightly sprinkler-irrigated to set germination and growth going, and to activate the chemical agents. The vessels were then covered with transparent plastic hoods until the plants had taken root. This cover ensured uniform germination of the test plants (to the extent that this was not impaired by the chemicals), and prevented readily volatile substances from evaporating.
(§2) For postemergence treatment, the plants were first grown to a height of from 3 to 10 cm, depending on their habit, before treated. Hoods were not placed on the pots. The experiments were set up in the greenhouse, hotter areas (25° to 40° C.) being preferred for heat-loving species, and 15° to 30° C. for plants from moderate climates. The experiments were carried out for from 4 to 6 weeks. During this period the plants were tended and their reaction to the various treatments was assessed. The following tables contain the substances investigated, the application rates in kg/ha of active ingredient, and the test plant species. Assessments were made on a 0 to 100 scale, 0 denoting no damage or normal emergence, and 100 denoting no emergence or complete destruction of at least the visible plant parts.

Alopec. myosur. [1] = experiment: as above; format: in vivo
Text: as §1, §2

Chrys. seget. [2] = experiment: as above; format: in vivo
Text: as §1, §2

Setaria spp. = experiment: as above; format: in vivo
Text: as §1, §2

Matric. spp. = experiment: as above; format: in vivo
Text: as §1, §2

Avena fat. = experiment: as above; format: in vivo
Text: as §1, §2

Glyc. max = experiment: preemergence application in the open, % damage; format: in vivo, Glycine max
Method: (§3) The experiments were carried out on small plots. The soil was a sandy loam having a pH of from 5 to 6 and containing from 1 to 1.5% humus. The treatment was preemergence, the active ingredients being applied immediately or at the latest 3 days after sowing. The crop plants were sown in rows. The weed flora was made up of the most widely varying species and was natural; the weed flora depended on the time of the year and in part on the crop (e.g., spring-germinating, summer-germinating). The substances were emulsified or suspended in water as the vehicle, and applied by means of a motor-driven plot spray mounted on a hitch. When no rain fell, the plots were watered to ensure germination and growth of the crop plants and weeds. All the experiments were run for several weeks. Over this period, assessments were made at certain intervals on the 0 to 100 scale.

Solanum nigrum = experiment: preemergence treatment in the greenhouse, % damage; format: in vivo; details: 0.25 kg/ha
In short: (§4)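 Greenhouse herbicide test at rates in kg/ha a.i. Pre-em soil spray right after sowing, then irrigation and hooding; post-em on 3–10 cm plants. Rated 0–100 over 4–6 weeks.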

Amar. retro. [3] = experiment: preemergence treatment in the greenhouse, % damage; format: in vivo; details: one value printed for two rates (0.125 0.25 kg/ha)
In short: as §4

Poa annua = experiment: preemergence treatment in the greenhouse, % damage; format: in vivo
In short: as §4

Cyp. diff. = experiment: preemergence treatment in the greenhouse, % damage; format: in vivo
In short: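 Seeds sown in sandy loam (~1.5% humus); pre-emergence: agents sprayed in water onto soil surface immediately after sowing, then irrigated and hooded until rooting. Post-emergence: plants treated at 3–10 cm height, unhooded. Greenhouse at 25–40 °C or 15–30 °C by species; rates in kg/ha a.i.; damage scored 0–100 after 4–6 weeks.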

Euph. gen. = experiment: preemergence treatment in the greenhouse, % damage; format: in vivo; details: 0.25 kg/ha
In short: as §4

Chrys. seget. [4] = experiment: preemergence treatment in the greenhouse, % damage; format: in vivo; details: 0.25 kg/ha
In short: as §4

Bromus spp. = experiment: preemergence treatment in the greenhouse, % damage; format: in vivo
In short: as §4

Sorgh. halep. = experiment: preemergence treatment in the greenhouse, % damage; format: in vivo
In short: as §4

Cyper. escul. = experiment: postemergence application in the greenhouse, % damage; format: in vivo, Cyperus esculentus
Text: as §1, §2

Echin. c.g. = experiment: preemergence application in the open, % damage; format: in vivo
Method: as §3

Amar. retro. [5] = experiment: preemergence application in the open, % damage; format: in vivo
Method: as §3

Lamium spp. = experiment: preemergence application in the open, % damage; format: in vivo; details: 2.0 kg/ha
Method: as §3

Stellaria media = experiment: preemergence application in the open, % damage; format: in vivo; details: 2.0 kg/ha
Method: as §3

Alopec. myosur. [6] = experiment: preemergence application in the open, % damage; format: in vivo; details: 2.0 kg/ha
Method: as §3

Brassica napus = experiment: preemergence application in the open, % damage; format: in vivo; details: 2.0 kg/ha
Method: as §3

Chenop. spp. = experiment: preemergence application in the open, % damage; format: in vivo
Method: as §3

Galins. spp. = experiment: preemergence application in the open, % damage; format: in vivo
Method: as §3

Anth./Matric. = experiment: preemergence application in the open, % damage; format: in vivo; details: 2.0 kg/ha
Method: as §3

In the case of `Cc1cccc(C)c1N(Cn1cccn1)C(=O)CCl` [Compound 5], the “% damage” value (Stell. med.; 1.0 kg/ha) is reported as 95%, the “% damage” value (Stell. med.; 2.0 kg/ha) is reported as 98% and the “% damage” value (Alopec. myosur. [1]; 1.0 kg/ha) is reported as 80%. The “% damage” value (Alopec. myosur. [1]; 2.0 kg/ha) was 90%, the “% damage” value (Chrys. seget. [2]; 1.0 kg/ha) was 98% and the “% damage” value (Chrys. seget. [2]; 2.0 kg/ha) was 98%. For the same compound, the “% damage” value (Setaria spp.; 1.0 kg/ha) was 82%, the “% damage” value (Setaria spp.; 2.0 kg/ha) was 85% and the “% damage” value (Matric. spp.; 1.0 kg/ha) was 95%. For the same compound, the “% damage” value (Matric. spp.; 2.0 kg/ha) was 95%, the “% damage” value (Avena fat.; 1.0 kg/ha) was 90% and the “% damage” value (Avena fat.; 2.0 kg/ha) was 92%. For the same compound, the “% damage” value (Glyc. max; 0,5 kg/ha) was 0%, the “% damage” value (Glyc. max; 1,0 kg/ha) was 4% and the “% damage” value (Solanum nigrum) was 100%. For the same compound, the “% damage” value (Amar. retro. [3]) was 100%, the “% damage” value (Poa annua; 0.125 kg/ha) was 100% and the “% damage” value (Poa annua; 0.25 kg/ha) was 100%. The “% damage” value (Cyp. diff.; 0.125 kg/ha) was 100%, the “% damage” value (Cyp. diff.; 0.25 kg/ha) was 100% and the “% damage” value (Euph. gen.) was 100%. The “% damage” value (Chrys. seget. [4]) was 100%, the “% damage” value (Bromus spp.; 0.125 kg/ha) was 90% and the “% damage” value (Bromus spp.; 0.25 kg/ha) was 95%. For the same compound, the “% damage” value (Sorgh. halep.; 0.125 kg/ha) was 95%, the “% damage” value (Sorgh. halep.; 0.25 kg/ha) was 95% and the “% damage” value (Cyper. escul.; 1.0 kg/ha) was 70%. The “% damage” value (Cyper. escul.; 2.0 kg/ha) was 72%, the “% damage” value (Echin. c.g.; 0,5 kg/ha) was 100% and the “% damage” value (Echin. c.g.; 1,0 kg/ha) was 100%. For the same compound, the “% damage” value (Amar. retro. [5]; 0,5 kg/ha) was 100%, the “% damage” value (Amar. retro. [5]; 1,0 kg/ha) was 100% and the “% damage” value (Lamium spp.) was 100%. For the same compound, the “% damage” value (Stellaria media) was 100%, the “% damage” value (Alopec. myosur. [6]) was 95% and the “% damage” value (Brassica napus) was 7.5%. The “% damage” value (Chenop. spp.; 0,5 kg/ha) was 69%, the “% damage” value (Chenop. spp.; 1,0 kg/ha) was 85% and the “% damage” value (Galins. spp.; 0,5 kg/ha) was 91%. The “% damage” value (Galins. spp.; 1,0 kg/ha) was 100% and the “% damage” value (Anth./Matric.) was 100%.
